Experimental data as given in patent publication US20240391954A1, “MC4R AGONIST PEPTIDES” (The Regents of the University of Michigan, priority 2021, published 2024).
Positions of bridges follow the written chain, without caps; N, C: chain ends. Non-standard residues stand in square brackets, D forms with d. Residues, ends and D or L forms follow the SMILES beside them. 1Nal = N[C@@H](Cc1cccc2ccccc12)C(=O)O; d2Nal = N[C@H](Cc1ccc2ccccc2c1)C(=O)O; NMeR = CN[C@@H](CCCNC(=N)N)C(=O)O; 2Pal = N[C@@H](Cc1ccccn1)C(=O)O; Cit = NC(=O)NCCC[C@H](N)C(=O)O; Nle = CCCC[C@H](N)C(=O)O; Aib = CC(C)(N)C(=O)O

Assays:
Assay type in all cases: cell-based
human MC3R = target: T1, human MC3R (Homo sapiens, UniProt P41968); experiment: split-luciferase cAMP sensor assay, agonist mode (measurement window 1), hMC3R; conditions: for Emax: % maximal activation, read-out: MC3R cAMP % max activation; for Emax / EC50: agonist mode; for MC4R selectivity vs MC3R: MC4R versus MC3R; for EC50: HEK-293 cells stably expressing hMC3R, read-out: MC3R cAMP EC50
T1 construct: expressed in transfected cells; host or cells: HEK-293 cells stably expressing the GScAMP22F split-luciferase cAMP sensor (parent reporter line from Promega); MC3R clone generated in-house, G418 selection
Procedure, shortened: (§1)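 EC50 values come from a four-parameter variable-slope fit of luminescence in measurement window 1, capturing direct peptide effects on receptor-expressing cells with a cAMP22f luciferase sensor. Cells were preloaded with 4% D-luciferin, serum-free medium; 20 μM forskolin normalized for cell number and transducer efficiency.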

human MC1R = target: T2, human MC1R (Homo sapiens, UniProt Q01726); experiment: split-luciferase cAMP sensor assay, agonist mode, hMC1R; conditions: MC4R versus MC1R
T2 construct: expressed in transfected cells; host or cells: HEK-293 cells stably expressing hMC1R and the GScAMP22F cAMP sensor
Procedure, shortened: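 HEK-293 cells stably expressing hMC1R and the GScAMP22F split-luciferase cAMP sensor, preloaded 120 min at 37° C with D-luciferin in serum-free medium. Peptide responses were taken as peak luminescence over 2-13 min minus 2-min baseline, normalized to the α-MSH ECmax. EC50 was obtained from a four-parameter variable-slope fit.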

human MC4R = target: T3, human MC4R (Homo sapiens, UniProt P32245); experiment: split-luciferase cAMP sensor assay, agonist mode (measurement window 1), hMC4R; conditions: agonist mode; for Emax: % maximal activation, read-out: MC4R cAMP % max activation; for EC50: HEK-293 cells stably expressing hMC4R, read-out: MC4R cAMP EC50
T3 construct: host or cells: HEK-293 cells stably expressing the GScAMP22F split-luciferase cAMP sensor and hMC4R, G418 selection
Procedure, shortened: as §1

T1 sequence (P41968 whole entry): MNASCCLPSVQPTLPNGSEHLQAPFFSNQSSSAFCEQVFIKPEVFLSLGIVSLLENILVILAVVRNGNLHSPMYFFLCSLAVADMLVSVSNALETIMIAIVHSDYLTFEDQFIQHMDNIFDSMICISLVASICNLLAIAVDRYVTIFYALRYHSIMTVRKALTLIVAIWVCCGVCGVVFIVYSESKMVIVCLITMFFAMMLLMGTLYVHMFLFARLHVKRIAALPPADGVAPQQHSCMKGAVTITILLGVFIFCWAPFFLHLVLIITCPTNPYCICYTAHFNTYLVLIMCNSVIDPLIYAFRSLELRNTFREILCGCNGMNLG
T2 sequence (Q01726 whole entry): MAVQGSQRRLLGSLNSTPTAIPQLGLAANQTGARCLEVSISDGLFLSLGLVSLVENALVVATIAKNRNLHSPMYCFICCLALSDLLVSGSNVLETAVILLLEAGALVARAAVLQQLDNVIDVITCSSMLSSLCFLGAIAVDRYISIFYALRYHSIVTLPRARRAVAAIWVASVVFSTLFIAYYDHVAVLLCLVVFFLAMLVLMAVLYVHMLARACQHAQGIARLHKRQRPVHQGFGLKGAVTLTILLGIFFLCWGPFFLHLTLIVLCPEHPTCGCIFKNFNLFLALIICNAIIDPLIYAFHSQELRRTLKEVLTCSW
T3 sequence (P32245 whole entry): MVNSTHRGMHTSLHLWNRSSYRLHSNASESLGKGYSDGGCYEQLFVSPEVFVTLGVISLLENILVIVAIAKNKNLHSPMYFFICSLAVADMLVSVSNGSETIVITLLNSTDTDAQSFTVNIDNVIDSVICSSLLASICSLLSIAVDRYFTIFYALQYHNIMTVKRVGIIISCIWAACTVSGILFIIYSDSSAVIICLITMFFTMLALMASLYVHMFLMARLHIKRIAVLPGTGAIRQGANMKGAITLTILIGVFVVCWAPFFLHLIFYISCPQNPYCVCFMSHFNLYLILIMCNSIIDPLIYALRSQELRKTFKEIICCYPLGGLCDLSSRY

| SMILES | Emax (human MC3R) [%] | MC4R selectivity vs MC3R (human MC3R) | MC4R selectivity vs MC1R (human MC1R) | Emax (human MC4R) [%] | EC50 (human MC3R) [µM] | EC50 (human MC4R) [µM] |
| --- | --- | --- | --- | --- | --- | --- |
| CC(=O)N[C@H]1CSSC[C@@H](C(N)=O)NC(=O)[C@H](Cc2ccccc2)NC(=O)[C@H](CCCNC(=N)N)NC(=O)[C@@H](Cc2ccccc2)NC(=O)[C@H](CCCNC(N)=O)NC(=O)CNC1=O [CTX-1639, cyclo(Cys-Gly-Cit-D-Phe-Arg-Phe-Cys)] (Ac-CG[Cit][dF]RFC-NH2; disulfide 1-7 (inferred)) | 44 | 2.82 | 8.32 | 88 | – | – |
| CC(=O)N[C@@H](CCCNC(=N)N)C(=O)N[C@H]1CSSC[C@@H](C(N)=O)NC(=O)[C@H](Cc2c[nH]c3ccccc23)NC(=O)[C@H](CCCNC(=N)N)NC(=O)[C@@H](Cc2ccccc2)NC(=O)[C@H](CCCNC(=N)N)NC(=O)[C@H](C)NC1=O [CTX-1267, Arg-cyclo(Cys-Ala-Arg-D-Phe-Arg-Trp-Cys)] (Ac-RCAR[dF]RWC-NH2; disulfide 2-8) | 40 | 4.07 | 0.5 | 96 | 0.012 | 0.003 |
| C[C@H]1NC(=O)CSC[C@@H](C(N)=O)NC(=O)[C@H](Cc2c[nH]c3ccccc23)NC(=O)[C@H](CCCNC(=N)N)NC(=O)[C@@H](Cc2ccccc2)NC(=O)[C@H](CCCNC(=N)N)NC1=O [CTX-1642, Thioether-cyclo(D-Ala-Arg-D-Phe-Arg-Trp-Cys)] ({CH2CO}-[dA]R[dF]RWC-NH2; thioether N-6) | 90 | 29 | 13 | 107 | – | 0.0029 |
| CC(=O)N[C@@H](CCCNC(=N)N)C(=O)N[C@H]1CSSC[C@@H](C(N)=O)NC(=O)[C@@H](Cc2ccc3ccccc3c2)NC(=O)[C@H](CCCNC(=N)N)NC(=O)[C@@H](Cc2ccccc2)NC(=O)[C@H](CCCNC(=N)N)NC(=O)[C@@H](C)NC1=O [CTX-1264, Arg-cyclo(Cys-D-Ala-Arg-D-Phe-Arg-D-Nal(2′)-Cys)] (Ac-RC[dA]R[dF]R[d2Nal]C-NH2; disulfide 2-8 (inferred)) | 44 | 0.29 | 0.14 | 80 | 0.0037 | 0.013 |
| CC(=O)N[C@H]1CSSC[C@@H](C(N)=O)NC(=O)[C@H](Cc2c[nH]c3ccccc23)NC(=O)[C@H](CCCNC(=N)N)NC(=O)[C@@H](Cc2ccccc2)NC(=O)[C@H](CCCNC(N)=O)NC(=O)[C@@H](C)NC1=O [CTX-1628, cyclo(Cys-D-Ala-Cit-D-Phe-Arg-Trp-Cys)] (Ac-C[dA][Cit][dF]RWC-NH2; disulfide 1-7 (inferred)) | 45 | 6.37 | 191 | 99 | – | 0.014 |
| CC(=O)N[C@@H](CCCNC(=N)N)C(=O)N[C@H]1CSSC[C@@H](C(N)=O)NC(=O)[C@@H](Cc2c[nH]c3ccccc23)NC(=O)[C@H](CCCNC(=N)N)NC(=O)[C@@H](Cc2ccccc2)NC(=O)[C@H](CCCNC(N)=O)NC(=O)C(C)(C)NC1=O [CTX-1290, Arg-cyclo(Cys-Aib-Cit-D-Phe-Arg-D-Trp-Cys)] (Ac-RC[Aib][Cit][dF]R[dW]C-NH2; disulfide 2-8) | 20 | 9.23 | 10 | 88 | 1.03 | – |
| N=C(N)NCCC[C@@H]1NC(=O)CNC(=O)CSC[C@@H](C(N)=O)NC(=O)[C@H](Cc2ccccc2)NC(=O)[C@H](CCCNC(=N)N)NC(=O)[C@@H](Cc2ccccc2)NC1=O [CTX-1654, Thioether-cyclo(Gly-Arg-D-Phe-Arg-Phe-Cys)] ({CH2CO}-GR[dF]RFC-NH2; thioether N-6) | 43 | 5.41 | 0.62 | 81 | – | – |
| C[C@H]1NC(=O)CSC[C@@H](C(N)=O)NC(=O)[C@H](Cc2ccccc2)NC(=O)[C@H](CCCNC(=N)N)NC(=O)[C@@H](Cc2ccccc2)NC(=O)[C@H](Cc2c[nH]cn2)NC1=O [CTX-1656, Thioether-cyclo(D-Ala-His-D-Phe-Arg-Phe-Cys)] ({CH2CO}-[dA]H[dF]RFC-NH2; thioether N-6) | 86 | 1.64 | 1 | 98 | – | 1.4 |
| CCCC[C@H](NC(=O)[C@H](CCCNC(=N)N)NC(C)=O)C(=O)N[C@H]1CSSC[C@@H](C(N)=O)NC(=O)[C@@H](Cc2c[nH]c3ccccc23)NC(=O)[C@H](CCCNC(=N)N)NC(=O)[C@@H](Cc2ccccc2)NC(=O)[C@H](CCCNC(=N)N)NC1=O [CTX-1616, Arg-Nle-cyclo(Cys-Arg-D-Phe-Arg-D-Trp-Cys)] (Ac-R[Nle]CR[dF]R[dW]C-NH2; disulfide 3-8) | 78 | 3.78 | 1.51 | 93 | – | 0.016 |
| CCCC[C@H](NC(=O)[C@H](CCCNC(=N)N)NC(C)=O)C(=O)N[C@H]1CSSC[C@@H](C(N)=O)NC(=O)[C@H](Cc2c[nH]c3ccccc23)NC(=O)[C@H](CCCNC(=N)N)NC(=O)[C@H](Cc2cccc3ccccc23)NC(=O)[C@H](Cc2c[nH]cn2)NC1=O [CTX-1610, Arg-Nle-cyclo(Cys-His-Nal(1′)-Arg-Trp-Cys)] (Ac-R[Nle]CH[1Nal]RWC-NH2; disulfide 3-8) | 67 | 0.66 | 0.03 | 90 | – | – |
| CC(=O)N[C@@H](CCCNC(=N)N)C(=O)N[C@H]1CSSC[C@@H](C(N)=O)NC(=O)[C@H](Cc2c[nH]c3ccccc23)NC(=O)[C@H](CCCNC(=N)N)NC(=O)[C@@H](Cc2ccccc2)NC(=O)[C@H](CCCNC(N)=O)NC(=O)C(C)(C)NC1=O [CTX-1289, Arg-cyclo(Cys-Aib-Cit-D-Phe-Arg-Trp-Cys)] | 21 | 30 | 130 | 93 | – | – |
| CC(=O)N[C@@H](CCCNC(=N)N)C(=O)N[C@H]1CSSC[C@@H](C(N)=O)NC(=O)[C@@H](Cc2c[nH]c3ccccc23)NC(=O)[C@H](CCCNC(N)=O)NC(=O)[C@@H](Cc2ccccc2)NC(=O)[C@H](CCCNC(=N)N)NC(=O)[C@@H](C)NC1=O [CTX-1281, Arg-cyclo(Cys-D-Ala-Arg-D-Phe-Cit-D-Trp-Cys)] (Ac-RC[dA]R[dF][Cit][dW]C-NH2; disulfide 2-8 (inferred)) | 44 | 0.29 | 0.44 | 92 | 0.028 | – |
| CCCC[C@H](NC(=O)[C@H](CCCNC(=N)N)NC(C)=O)C(=O)N[C@H]1CSSC[C@@H](C(N)=O)NC(=O)[C@H](Cc2c[nH]c3ccccc23)NC(=O)[C@H](CCCNC(=N)N)NC(=O)[C@@H](Cc2ccccc2)NC(=O)[C@H](Cc2ccccn2)NC1=O [CTX-1619, Arg-Nle-cyclo(Cys-Pal(2′)-D-Phe-Arg-Trp-Cys)] (Ac-R[Nle]C[2Pal][dF]RWC-NH2; disulfide 3-8 (inferred)) | 84 | 13 | 86 | 99 | – | 0.0026 |
| CC(=O)N[C@H]1CSSC[C@@H](C(N)=O)NC(=O)[C@H](Cc2ccccc2)NC(=O)[C@H](CCCNC(=N)N)NC(=O)[C@@H](Cc2ccccc2)NC(=O)[C@H](CCCNC(=N)N)NC(=O)CNC1=O [CTX-1638, cyclo(Cys-Gly-Arg-D-Phe-Arg-Phe-Cys)] (Ac-CGR[dF]RFC-NH2; disulfide 1-7) | 75 | 1.66 | 1.04 | 110 | – | – |
| CC(=O)N[C@@H](CCCNC(=N)N)C(=O)N[C@H]1CSSC[C@@H](C(N)=O)NC(=O)[C@@H](Cc2c[nH]c3ccccc23)NC(=O)[C@H](CCCNC(=N)N)N(C)C(=O)[C@@H](Cc2ccccc2)NC(=O)[C@H](CCCNC(=N)N)NC(=O)[C@@H](C)NC1=O [CTX-1284, Arg-cyclo(Cys-D-Ala-Arg-D-Phe-N-Me-Arg-D-Trp-Cys)] (Ac-RC[dA]R[dF][NMeR][dW]C-NH2; disulfide 2-8) | 45 | 8.11 | 0.15 | 91 | 1.03 | – |
| CCCC[C@H](NC(=O)[C@H](CCCNC(=N)N)NC(C)=O)C(=O)N[C@H]1CSSC[C@@H](C(N)=O)NC(=O)[C@@H](Cc2c[nH]c3ccccc23)NC(=O)[C@H](CCCNC(=N)N)NC(=O)[C@@H](Cc2ccccc2)NC(=O)[C@H](CCCNC(N)=O)NC1=O [CTX-1608, Arg-Nle-cyclo(Cys-Cit-D-Phe-Arg-D-Trp-Cys)] (Ac-R[Nle]C[Cit][dF]R[dW]C-NH2; disulfide 3-8 (inferred)) | 19 | 0.95 | 2.07 | 79 | – | 0.288 |
| CC(=O)N[C@H]1CSSC[C@@H](C(N)=O)NC(=O)[C@H](Cc2c[nH]c3ccccc23)NC(=O)[C@H](CCCNC(=N)N)NC(=O)[C@@H](Cc2ccccc2)NC(=O)[C@H](CCCNC(=N)N)NC(=O)C(C)(C)NC1=O [CTX-1632, cyclo(Cys-Aib-Arg-D-Phe-Arg-Trp-Cys)] (Ac-C[Aib]R[dF]RWC-NH2; disulfide 1-7) | 77 | 36 | 3.18 | 105 | – | – |
